Compound in assay [1]: T1, CC[C@@]1(O)C(=O)OCc2c1cc1n(c2=O)Cc2cc3ccccc3nc2-1 [CAMPTOTHECIN]
Briefly: surviving fraction relative to DMSO-only wells; higher = less growth inhibition. The settings on record: exposure time: 5 days. Summed up: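 Log-phase tumour cells were seeded at 250–500 per well in 384-well plates and, from 24 hours after seeding, exposed continuously for five days to inhibitors at 0.5, 1, 5, 10, 50, 100, 500 and 1000 nM. Surviving fraction is CellTiter-Glo luminescence normalised to the median of DMSO-only wells. Luminescence was measured after 10 minutes at room temperature, and only lines screened three times with replicate Pearson r >0.7 and median Z' >0.3 were kept.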

Compound in assay [2]: CC(=O)NCC(=O)N1[C@@H]2CC[C@H]1c1ccc(Nc3ncc(C(F)(F)F)c(NC4CCC4)n3)cc12
Briefly: area under dose-response curve of surviving fraction (unscaled, Aref=0) (surviving fraction x log10(nM)); higher = more resistant. The settings on record: exposure time: 5 days; dose range 0.5-1000 nM. The procedure, abridged: (§1)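 Each tumour cell line was screened three times in 384-well plates, receiving eight inhibitor concentrations from 0.5 to 1000 nM for five days. CellTiter-Glo luminescence gave viability, normalised to DMSO-only wells. Using the drc R package, surviving fractions were fitted with 3-parameter logistic dose-response curves, and the unscaled activity area over log10 dose (Aref = 0) was taken as the area under the curve.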

Compound in assay [3]: CC(=O)O[C@H]1C(=O)[C@@]2(C)[C@H]([C@H](OC(=O)c3ccccc3)[C@]3(O)C[C@H](OC(=O)[C@H](O)[C@@H](NC(=O)c4ccccc4)c4ccccc4)C(C)=C1C3(C)C)[C@]1(OC(C)=O)CO[C@@H]1C[C@@H]2O [PACLITAXEL]
The assay is described as above. Particulars: exposure time: 5 days; dose range 0.5-1000 nM. The procedure, abridged: as §1

Compound in assay [4]: CC(=O)c1c(C)c2cnc(Nc3ccc(N4CCNCC4)cn3)nc2n(C2CCCC2)c1=O
The assay is described as above. The settings on record: exposure time: 5 days; dose range 0.5-1000 nM. Summed up:
as §1

Compound in assay [5]: T1, CAMPTOTHECIN
The assay is described as above. Particulars: exposure time: 5 days; dose range 0.5-1000 nM. The procedure, abridged:
as §1

Compound in assay [6]: COCC[n+]1c2c(n(Cc3cnccn3)c1C)C(=O)c1ccccc1C2=O [YM155]
Described as above. Particulars: exposure time: 5 days; dose range 0.5-1000 nM. The procedure, abridged: as §1

Compound in assay [7]: COc1cc2ncnc(Nc3ccc(F)c(Cl)c3)c2cc1OCCCN1CCOCC1 [GEFITINIB]
The assay is described as above. Particulars: exposure time: 5 days; dose range 0.5-1000 nM. The procedure, abridged: as §1

Compound in assay [8]: C[C@]1(O)C[C@@H](c2nc(-c3ccc4ccc(-c5ccccc5)nc4c3)c3c(N)nccn32)C1 [OSI-906]
Described as above. The settings on record: exposure time: 5 days; dose range 0.5-1000 nM. Summed up: as §1

Compound in assay [9]: Cc1ccc(-c2cc(C(F)(F)F)nn2-c2ccc(S(N)(=O)=O)cc2)cc1 [CELECOXIB]
The assay is described as above. The settings on record: exposure time: 5 days; dose range 0.5-1000 nM. Summed up: as §1

Compound in assay [10]: O=C(O)C1(C(=O)O)CCC1.[NH2-].[NH2-].[Pt+2] [CARBOPLATIN]
The description is as above. Particulars: exposure time: 5 days; dose range 0.5-1000 nM. Summed up: as §1

± gives the standard deviation of the averaged measurements.

As for HCC38 BREAST, the surviving fraction in assay [1] (0.5 nM) came to 0.946 ± 0.16; in assay [1] (1 nM), 0.926 ± 0.15; in assay [1] (5 nM) it was 0.563 ± 0.16; in assay [1] (10 nM), 0.351 ± 0.12; in assay [1] (50 nM), 0.0953 ± 0.0049; in assay [1] (100 nM), 0.0423 ± 0.009. The results for the surviving fraction in [1] (500 nM) and in [1] (1000 nM) were 0.038 ± 0.0072 and 0.0387 ± 0.0025, respectively. Also, the “area under dose-response curve” value in assay [2] stood at 2.71; in assay [3], 0.609; in [4], 3.95; in [5] it was 1.16; in assay [6], 1.05; in assay [7], 3.99. The “area under dose-response curve” value was 3.25 in assay [8], 4.1 in assay [9] and 3.4 in [10].
On to SAOS2 BONE, for which the surviving fraction was 0.794 ± 0.046 in assay [1] (0.5 nM); 0.829 ± 0.024 in assay [1] (1 nM); 0.677 ± 0.055 in assay [1] (5 nM); 0.415 ± 0.018 in assay [1] (10 nM); 0.129 ± 0.006 in assay [1] (50 nM); 0.059 ± 0.005 in assay [1] (100 nM). Moreover, the results for the surviving fraction in assay [1] (500 nM) and in [1] (1000 nM) were 0.0293 ± 0.0032 and 0.0267 ± 0.00058, respectively. Besides, the “area under dose-response curve” value in [2] was determined as 2.47; in [3], 1.1; in [4], 3.65; in [5] it was 1.2; in assay [6], 1.05; in assay [7], 3.62. Besides, the “area under dose-response curve” value in [8] worked out at 2.83; in assay [9], 3.78; in [10] it was 3.68.
Regarding MDAMB231 BREAST, the surviving fraction came to 0.887 ± 0.025 in assay [1] (0.5 nM); 0.902 ± 0.028 in assay [1] (1 nM); 0.803 ± 0.04 in assay [1] (5 nM); 0.603 ± 0.019 in assay [1] (10 nM); 0.276 ± 0.0089 in assay [1] (50 nM); 0.211 ± 0.007 in assay [1] (100 nM). The surviving fraction in [1] (500 nM) is 0.0976 ± 0.004; in [1] (1000 nM) it was 0.0968 ± 0.0048. Besides, the “area under dose-response curve” value in [2] came out at 2.51; in [3], 0.557; in [4], 3.24; in [5] it was 1.62; in assay [6], 0.671; in [7], 3.4. Also, the “area under dose-response curve” value stood at 3.07 in [8], 3.3 in [9] and 3.32 in [10].
As for T47D BREAST, the surviving fraction in assay [1] (0.5 nM) was determined as 0.819 ± 0.035; in assay [1] (1 nM), 0.878 ± 0.023; in assay [1] (5 nM) it was 0.743 ± 0.019; in [1] (10 nM) it was 0.528 ± 0.012; in assay [1] (50 nM) it was 0.259 ± 0.013; in [1] (100 nM), 0.236 ± 0.0055. Besides, the surviving fraction is 0.157 ± 0.006 in assay [1] (500 nM) and 0.137 ± 0.0086 in assay [1] (1000 nM). Also, the “area under dose-response curve” value in assay [2] is 3.44; in assay [3] it was 1.04; in assay [4], 3.62; in [5], 1.54; in assay [6], 1.68; in [7], 3.54. Also, the results for the “area under dose-response curve” value in assay [8], in assay [9] and in assay [10] were 3.09, 3.64 and 3.42, respectively.
Take HCC1806 BREAST: the surviving fraction in [1] (0.5 nM) amounted to 0.717 ± 0.092; in assay [1] (1 nM), 0.661 ± 0.046; in assay [1] (5 nM) it was 0.269 ± 0.054; in [1] (10 nM), 0.128 ± 0.015; in assay [1] (50 nM), 0.074 ± 0.0056; in [1] (100 nM) it was 0.044 ± 0.0017. Further, the surviving fraction was 0.0193 ± 0.00058 in assay [1] (500 nM) and 0.0223 ± 0.00058 in assay [1] (1000 nM). Besides, the “area under dose-response curve” value in [2] came to 2.62; in [3] it was 0.267; in assay [4], 3.44; in assay [5] it was 0.682; in assay [6], 1.02; in [7] it was 2.94. Besides, the “area under dose-response curve” value in [8] came out at 2.83; in assay [9], 3.65; in assay [10], 3.64.
Turning to SCC36 HEADNECK, the surviving fraction was 0.804 ± 0.15 in [1] (0.5 nM); 0.703 ± 0.13 in [1] (1 nM); 0.704 ± 0.14 in [1] (5 nM); 0.495 ± 0.018 in assay [1] (10 nM); 0.332 ± 0.012 in assay [1] (50 nM); 0.156 ± 0.0031 in assay [1] (100 nM). Besides, the surviving fraction came out at 0.0463 ± 0.012 in assay [1] (500 nM) and 0.0413 ± 0.004 in assay [1] (1000 nM). For the same test system, the “area under dose-response curve” value in assay [2] was found to be 2.74; in [3], 0.905; in assay [4] it was 3.5; in assay [5], 1.36; in assay [6] it was 1.77; in assay [7] it was 2.61. Also, the “area under dose-response curve” value was 2.48 in [8], 3.53 in assay [9] and 3.45 in assay [10].
As for OSHN BONE, the surviving fraction amounted to 0.83 ± 0.013 in [1] (0.5 nM); 0.842 ± 0.007 in [1] (1 nM); 0.47 ± 0.079 in assay [1] (5 nM); 0.108 ± 0.018 in assay [1] (10 nM); 0.0807 ± 0.0076 in [1] (50 nM); 0.0593 ± 0.012 in assay [1] (100 nM). Further, the figures for the surviving fraction in assay [1] (500 nM) and in assay [1] (1000 nM) were 0.0367 ± 0.0083 and 0.034 ± 0.0044, respectively. Besides, the “area under dose-response curve” value in [2] turned out to be 2.43; in [3], 0.555; in assay [4] it was 3.62; in assay [5], 0.918; in assay [6], 0.946; in assay [7] it was 3.72. In addition, the “area under dose-response curve” value came out at 2.89 in assay [8], 3.7 in assay [9] and 3.65 in assay [10].
Turning to HELA CERVIX, the surviving fraction in assay [1] (0.5 nM) is 0.934 ± 0.062; in [1] (1 nM), 0.937 ± 0.044; in assay [1] (5 nM) it was 0.967 ± 0.04; in assay [1] (10 nM) it was 1.06 ± 0.014; in assay [1] (50 nM) it was 0.253 ± 0.019; in assay [1] (100 nM) it was 0.373 ± 0.02. In addition, the results for the surviving fraction in [1] (500 nM) and in assay [1] (1000 nM) were 0.0667 ± 0.0072 and 0.0348 ± 0.0013, respectively. Also, the “area under dose-response curve” value in [2] stood at 2.21; in assay [3], 0.718; in [4], 3.5; in assay [5], 1.99; in assay [6], 1.07; in assay [7], 3.66. The “area under dose-response curve” value amounted to 3.27 in assay [8], 3.64 in assay [9] and 3.53 in assay [10].

Source of the values: the supplement of paper PMC6045584.
